Article PMC6268935, “Antiatherogenic Properties of Acetone Extract of Alpinia zerumbet Seeds” (Molecules, 2012)
Values after ≈ are worked out from the molar mass of the structure shown. Where two headings read alike, the source gives them in different places.

Columns and labels:
[1] = molecular target: T1, porcine pancreatic lipase (PL) (Sus scrofa, UniProt P00591); test: Pancreatic lipase inhibition assay (p-NPB hydrolysis); format: biochemical
T1 sequence (P00591 1-450): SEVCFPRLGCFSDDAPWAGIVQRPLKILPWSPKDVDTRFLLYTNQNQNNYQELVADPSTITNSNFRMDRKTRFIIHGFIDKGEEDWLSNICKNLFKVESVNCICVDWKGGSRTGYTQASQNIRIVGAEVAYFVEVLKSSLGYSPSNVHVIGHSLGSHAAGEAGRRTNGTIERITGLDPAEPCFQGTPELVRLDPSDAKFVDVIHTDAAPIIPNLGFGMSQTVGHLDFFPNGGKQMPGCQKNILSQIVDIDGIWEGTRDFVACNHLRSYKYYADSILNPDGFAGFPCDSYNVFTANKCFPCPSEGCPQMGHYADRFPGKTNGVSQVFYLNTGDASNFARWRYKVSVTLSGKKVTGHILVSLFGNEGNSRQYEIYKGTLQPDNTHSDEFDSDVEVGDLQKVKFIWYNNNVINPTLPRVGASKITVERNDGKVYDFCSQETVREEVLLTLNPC
Method: The ability of the different parts of crude extracts to inhibit PL was measured as described previously, with slight modifications. Briefly, an enzyme buffer was prepared by the addition of 30 μL (10 units) of PL solution (in 10 mM MOPS and 1 mM EDTA, pH 6.8) to 850 μL of Tris buffer (100 mM Tris-HCl and 5 mM CaCl2, pH 7.0). […] The reaction was allowed to proceed for 15 min at 37 °C after addition of 20 μL of the substrate solution (10 mM p-NPB in dimethyl formamide). The lipase activity was determined by measuring the hydrolysis of p-NPB to p-nitrophenol at 400 nm using microplate reader. Inhibition of the lipase activity was expressed as the percentage decrease in the OD when PL was incubated with the test compounds.

[2] = tested on: low-density lipoprotein cholesterol from human plasma (LDL); test: LDL oxidation inhibition assay (CuSO4-induced, TBARS); format: biochemical; conditions: copper-induced LDL oxidation, n = 3
Method: The oxidation of LDL was investigated as described by Rattan and Arad. […] The reaction was stopped by adding 50 μL of 1 M EDTA and placing the sample at −20 °C for TBA reactive substance (TBARS) assay. The generation of malonyldialdehyde (MDA) equivalents during LDL oxidation was estimated by the TBARS assay using the method of Steinbrecher et al.. LDL oxidation was carried out as described above. After oxidation, LDL was mixed with 1.5 mL of 0.67% TBA and 1.5 mL of 20% TCA. After placing samples in boiling water (100 °C) for 30 min, the reaction product was kept for 30 min at 25 °C and centrifuged for 15 min at 4 °C. The supernatants were read on a spectrophotometer at 532 nm, blank containing 220 μg/mL LDL only. The yields of MDA were used as a standard and the results were expressed as nanomoles of MDA equivalents.

[3] = molecular target: T2, 15-Lipoxygenase from soybean (15-LO) (Glycine max, UniProt P08170); test: 15-Lipoxygenase inhibition assay (linoleic acid substrate); format: biochemical
T2 construct: purchased Cayman Chemical Company
T2 sequence (P08170 whole entry): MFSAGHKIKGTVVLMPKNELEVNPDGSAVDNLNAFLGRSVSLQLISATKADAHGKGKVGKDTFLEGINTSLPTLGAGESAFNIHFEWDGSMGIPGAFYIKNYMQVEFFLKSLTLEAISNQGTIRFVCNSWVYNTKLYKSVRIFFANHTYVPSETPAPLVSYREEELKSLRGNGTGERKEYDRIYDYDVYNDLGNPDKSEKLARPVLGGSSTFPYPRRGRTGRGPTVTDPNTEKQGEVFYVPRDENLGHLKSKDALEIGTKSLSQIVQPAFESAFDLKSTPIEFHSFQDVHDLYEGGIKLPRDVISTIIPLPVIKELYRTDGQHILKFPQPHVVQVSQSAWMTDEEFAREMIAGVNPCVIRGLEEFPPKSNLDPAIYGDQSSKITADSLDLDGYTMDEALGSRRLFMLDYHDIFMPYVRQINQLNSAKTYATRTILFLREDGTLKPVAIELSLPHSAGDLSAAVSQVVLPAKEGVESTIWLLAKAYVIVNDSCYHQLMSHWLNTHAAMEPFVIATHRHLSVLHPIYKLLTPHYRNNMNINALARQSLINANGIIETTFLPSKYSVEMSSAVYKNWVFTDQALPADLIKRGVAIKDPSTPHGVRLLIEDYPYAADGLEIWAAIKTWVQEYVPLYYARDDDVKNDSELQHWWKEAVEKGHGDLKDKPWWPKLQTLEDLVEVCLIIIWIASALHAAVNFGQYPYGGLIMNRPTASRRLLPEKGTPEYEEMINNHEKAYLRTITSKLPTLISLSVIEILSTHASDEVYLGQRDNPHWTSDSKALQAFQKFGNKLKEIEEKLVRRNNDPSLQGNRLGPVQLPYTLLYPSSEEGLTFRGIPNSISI
Method: The final enzyme concentration was 500 units/mL and the test samples were dissolved in DMSO solutions. All measurements were carried out at least twice, in each instance using caffeic and ferulic acids, a well-known inhibitor of 15-LO, as positive controls.

[4] = tested on: enzymes in the cholesterol biosynthetic pathway; conditions: cited from earlier work
human cancer cell line = tested on: human cancer cell line; design: method as in PMID 19382453; conditions: cited from earlier work
[5] = tested on: rat hepatic stellate cells; design: method as in PMID 15787259; conditions: cited from earlier work
[6] = normal human; cited from earlier work
[7] = tested on: accelerated atherosclerosis in native hearts; design: method as in PMID 8419015; conditions: native hearts of a rabbit heart transplant model; cited from earlier work
tyrosinase mushroom = tyrosinase mushroom (Agaricus bisporus, UniProt C7FF04); test: Anti-tyrosinase activity assay; format: biochemical; conditions: n = 3
Chain of tyrosinase mushroom (C7FF04 1-392): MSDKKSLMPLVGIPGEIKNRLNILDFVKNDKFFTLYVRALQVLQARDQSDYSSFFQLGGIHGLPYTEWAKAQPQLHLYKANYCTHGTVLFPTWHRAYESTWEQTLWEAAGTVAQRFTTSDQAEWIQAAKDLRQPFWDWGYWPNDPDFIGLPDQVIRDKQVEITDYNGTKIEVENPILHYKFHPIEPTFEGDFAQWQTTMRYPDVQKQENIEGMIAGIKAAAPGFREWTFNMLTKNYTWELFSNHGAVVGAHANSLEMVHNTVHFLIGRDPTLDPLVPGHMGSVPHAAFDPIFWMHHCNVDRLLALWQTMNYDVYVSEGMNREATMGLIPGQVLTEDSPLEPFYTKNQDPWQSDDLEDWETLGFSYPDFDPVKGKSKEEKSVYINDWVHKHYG
Method: Tyrosinase activity inhibition was determined by the method as described previously [29]. In brief, sample extracts were dissolved in methanol to make the different concentrations (μg/mL). The 96-well plate was set up in the following order; 120 μL of phosphate buffer (20 mM, pH 6.8), 20 μL of sample and 20 μL of tyrosinase mushroom (500 units/mL in 20 mM phosphate buffer). After incubation at 25 °C for 15 min, reaction was initiated by adding 20 μL of 0.85 mM L-tyrosine solution to each well. The enzyme activity was determined by measuring the absorbance at 470 nm using microplate reader (BioRad, Benchmark microplate reader, Hertfordshire, UK). […] The percentage of tyrosinase inhibition was calculated as follows:
where, A = absorbance of the control with enzyme; B = absorbance of the control without enzyme; C = absorbance of the test sample with enzyme; D = absorbance of the test sample without enzyme.

[8] = n = 3, read-out: IC50 pancreatic lipase (PL) inhibition (converted)
[9] = n = 3, read-out: IC50 15-LO inhibition (converted)

For `CC(C)[C@H](C)CC[C@@H](C)[C@H]1CC[C@H]2[C@@H]3CC=C4C[C@@H](O)CC[C@]4(C)[C@H]3CC[C@]12C` [campesterol], the IC50 [1] was 323 µM, the “IC50 LDL oxidation inhibition” value [2] was 149.02 ± 1.93 µg/mL (≈ 372 µM) and the IC50 [3] was 361 µM. For the same molecule, the “inhibition of enzymes in the cholesterol biosynthetic pathway / cholesterol biosynthesis” value [4] was “could not inhibit”.
For `CC(C)CCC[C@@H](C)[C@H]1CC[C@H]2[C@@H]3CC(=O)C4=CC(=O)CC[C@]4(C)[C@H]3CC[C@]12C` [cholest-4-ene-3,6-dione], the IC50 [1, 8] is given as 48.9 µM, the “IC50 LDL oxidation inhibition” value [2] is given as 16.12 ± 1.43 µg/mL (≈ 40.4 µM) and the “cytotoxic activity against human cancer cell line” value (human cancer cell line) is given as “cytotoxic activity”. For the same molecule, the “inhibitory activity on proliferation of rat hepatic stellate cells” value [5] was “inhibitory activity” and the IC50 [3, 9] was 85.8 µM.
In the case of `C[C@]12CC[C@H](O)CC1=CC[C@@H]1[C@@H]2CC[C@]2(C)C(=O)CC[C@@H]12` [dehydroepiandrosterone, 3β-hydroxy-5-androsten-17-one], the “effect on serum LDL level” value [6] is given as “reduce serum LDL level” and the “effect on development of accelerated atherosclerosis” value [7] is given as “inhibited the development of accelerated atherosclerosis”.
For `COc1cc(/C=C/C(=O)O)ccc1O` [ferulic acid, reference compound], the “IC50 15-LO inhibition” value ([3]; n = 3) was 54.79 ± 1.12 µg/mL (≈ 282 µM).
In the case of `O=c1c(O)c(-c2ccc(O)c(O)c2)oc2cc(O)cc(O)c12` [quercetin, reference compound], the “IC50 LDL oxidation inhibition” value [2] is reported as 22.56 ± 0.70 µg/mL (≈ 74.6 µM).
With `CC[C@H](CC[C@@H](C)[C@H]1CC[C@H]2[C@@H]3CC=C4C[C@@H](O)CC[C@]4(C)[C@H]3CC[C@]12C)C(C)C` [sitosterol] the “IC50 pancreatic lipase (PL) inhibition” value ([1]; n = 3) was 99.99 ± 1.86 µg/mL (≈ 241 µM), the “IC50 LDL oxidation inhibition” value [2] was 97.76 ± 0.77 µg/mL (≈ 236 µM) and the “IC50 15-LO inhibition” value ([3]; n = 3) was 123.34 ± 1.94 µg/mL (≈ 297 µM). The IC50 tyrosinase inhibition (tyrosinase mushroom) was 187.77 ± 0.04 µg/mL (≈ 453 µM) and the “inhibition of enzymes in the cholesterol biosynthetic pathway / cholesterol biosynthesis” value [4] was “could not inhibit”.
For `CC[C@H](/C=C/[C@@H](C)[C@H]1CC[C@H]2[C@@H]3CC=C4C[C@@H](O)CC[C@]4(C)[C@H]3CC[C@]12C)C(C)C` [stigmasterol], the IC50 [1, 8] was 303 µM, the “IC50 LDL oxidation inhibition” value [2] was 50.01 ± 0.77 µg/mL (≈ 121 µM) and the IC50 [3, 9] was 182 µM. The “inhibition of enzymes in the cholesterol biosynthetic pathway / cholesterol biosynthesis” value [4] was “inhibitory effects”.
